Patent publication US20250042862A1, “AROMATIC HETEROCYCLIC COMPOUND AND APPLICATION THEREOF” (Shanghai Institute of Materia Medica, Chinese Academy of …, priority 2021, published 2025)

Molecular target: human recombinant LSD1 protein (Homo sapiens (Human), UniProt O60341)
Assay: In vitro enzyme inhibition activity assay - LSD1 (Lance Ultra TR-FRET)
Assay type: biochemical
Conditions: all compounds tested in the form of hydrochloride
Protocol: The purpose of this experiment was to test the in vitro inhibitory activity of the compounds against LSD1. The human recombinant LSD1 protein used in the experiment was purchased from Active Motif, and the enzyme level activity testing assay of LSD1 was performed using the Lance Ultra LSD1 Histone H3 Lysine 4 Demethylase Assay Kit (PerkinElmer). Tris-buffer (50 mMTris-HCl, 50 mMNaCl, 0.01% Tween-20, 1 mM DTT, 10 μM FAD, 10% glycerol, pH 9.0) was first prepared, and after preparation, the LSD1 fractions required for test were placed in this buffer and incubated for one hour at room temperature; the fractions included 4 μL of substrate solution ([…] Bio-H3K4me2, 1-24aa), 4 μL of enzyme solution (4 nM LSD1), and 2 μL of inhibitor in a 384-well microplate. After these operations, another 5 μL of assay mixture containing Eu-labeled H3K4me0 antibody and ULight-Streptavidin anti-biotin protein was added to the system, after which the fluorescence intensity of the components to be tested was detected by using Envision (PerkinElmer) in TR-FRET mode (excitation wavelength of 320 nm, emission wavelength of 620 nm). The test was repeated a total of three times to minimize errors. The final IC50 data were calculated by the software GraphPad Prism 5, and finally the sigmoidal dose-response (variable slope) method was used to obtain the fitted curve.
The LSD1 inhibitory activities of representative compounds of the present application as well as the positive control compound CC90011 were provided in Table 2. All compounds were tested in the form of hydrochloride.

`N#Cc1ccc(-c2nc(N3CCC[C@@H](N)CC3)nc3ccc(-c4c(F)cccc4C(F)(F)F)cc23)cc1F` (stereo in doubt) [Compound 89, 4-(2-(4-aminoazepan-1-yl)-6-(2-fluoro-6-(trifluoromethyl)phenyl)quinazolin-4-yl)-2-fluorobenzonitrile] and `N#Cc1ccc(-c2nc(N3CCC[C@H](N)CC3)nc3ccc(-c4c(F)cccc4C(F)(F)F)cc23)cc1F` [Compound 88, (S)-4-(2-(4-aminoazepan-1-yl)-6-(2-fluoro-6-(trifluoromethyl)phenyl)quinazolin-4-yl)-2-fluorobenzonitrile] cannot be ordered by IC50: at most 30 nM for the first, at most 30 nM for the second.

`N#Cc1ccc(-c2nc(N3CCC(N)CC3)nc3ccc(-c4c(F)cccc4C(F)(F)F)cc23)cc1F` [Compound 19, 4-(2-(4-aminopiperidin-1-yl)-6-(2-fluoro-6-(trifluoromethyl)phenyl)quinazolin-4-yl)-2-fluorobenzonitrile] and `N#Cc1ccc(-c2nc(N3CC[C@H](N)C3)nc3ccc(-c4c(F)cccc4C(F)(F)F)cc23)cc1F` [Compound 90, (S)-4-(2-(3-aminopyrrolidin-1-yl)-6-(2-fluoro-6-(trifluoromethyl)phenyl)quinazolin-4-yl)-2-fluorobenzonitrile] cannot be ordered by IC50: at most 30 nM for the first, at most 30 nM for the second.

`N#Cc1ccc(-c2nc(N3CC[C@@H](N)[C@H](F)C3)nc3ccc(-c4c(F)cccc4C(F)(F)F)cc23)cc1F` [Compound 84, 4-(2-((3R,4R)-4-amino-3-fluoropiperidin-1-yl)-6-(2-fluoro-6-(trifluoromethyl)phenyl)quinazolin-4-yl)-2-fluorobenzonitrile] and `N#Cc1ccc(-c2nc(N3CC[C@H](N)[C@@H](F)C3)nc3ccc(-c4c(F)cccc4C(F)(F)F)cc23)cc1F` [Compound 85, 4-(2-((3S,4S)-4-amino-3-fluoropiperidin-1-yl)-6-(2-fluoro-6-(trifluoromethyl)phenyl)quinazolin-4-yl)-2-fluorobenzonitrile] fall in the same range of IC50: 30 to 300 nM for the first, 30 to 300 nM for the second.

`N#Cc1ccc(-c2nc(N3CCCC[C@H](N)C3)nc3ccc(-c4c(F)cccc4C(F)(F)F)cc23)cc1F` [Compound 86, (S)-4-(2-(3-aminoazepan-1-yl)-6-(2-fluoro-6-(trifluoromethyl)phenyl)quinazolin-4-yl)-2-fluorobenzonitrile] and `N#Cc1ccc(-c2nc(N3CCCC[C@@H](N)C3)nc3ccc(-c4c(F)cccc4C(F)(F)F)cc23)cc1F` [Compound 87, (R)-4-(2-(3-aminoazepan-1-yl)-6-(2-fluoro-6-(trifluoromethyl)phenyl)quinazolin-4-yl)-2-fluorobenzonitrile] cannot be ordered by IC50: at most 30 nM for the first, at most 30 nM for the second.

`N#Cc1ccc(-c2nc(N3CC[C@@H](N)C3)nc3ccc(-c4c(F)cccc4C(F)(F)F)cc23)cc1F` [Compound 91, (R)-4-(2-(3-aminopyrrolidin-1-yl)-6-(2-fluoro-6-(trifluoromethyl)phenyl)quinazolin-4-yl)-2-fluorobenzonitrile] and `N#Cc1ccc(-c2nc(N3CCC(N)CC3)cc3ccc(-c4c(F)cccc4C(F)(F)F)cc23)cc1F` [Compound 98, 4-(3-(4-Aminopiperidin-1-yl)-7-(2-fluoro-6-(trifluoromethyl)phenyl)isoquinolin-1-yl)-2-fluorobenzonitrile] cannot be ordered by IC50: at most 30 nM for the first, at most 30 nM for the second.

`N#Cc1ccc(-c2nc(N3CCC(N)CC3)nc3c2CN(c2ccccc2C(F)(F)F)CC3)cc1F` [Compound 92, 4-(2-(4-aminopiperidin-1-yl)-6-(2-(trifluoromethyl)phenyl)-5,6,7,8-tetrahydropyrido[4,3-d]pyrimidin-4-yl)-2-fluorobenzonitrile] and `N#Cc1ccc(-c2nc(N3CCC(N)CC3)nc3c2CN(c2c(F)cccc2C(F)(F)F)CC3)cc1F` [Compound 93, 4-(2-(4-aminopiperidin-1-yl)-6-(2-fluoro-6-(trifluoromethyl)phenyl)-5,6,7,8-tetrahydropyrido[4,3-d]pyrimidin-4-yl)-2-fluorobenzonitrile] fall in the same range of IC50: 30 to 300 nM for the first, 30 to 300 nM for the second.

`Cn1ncc2cccc(N3CCc4nc(N5CCC(N)CC5)nc(-c5ccc(C#N)c(F)c5)c4C3)c21` [Compound 94, 4-(2-(4-aminopiperidin-1-yl)-6-(1-methyl-1H-indazol-7-yl)-5,6,7,8-tetrahydropyrido[4,3-d]pyrimidin-4-yl)-2-fluorobenzonitrile] and `Cn1c(=O)c(-c2ccccc2C(F)(F)F)cc2c(-c3ccc(C#N)c(F)c3)nc(N3CCC(N)CC3)nc21` [Compound 99, 4-(2-(4-aminopiperidin-1-yl)-8-methyl-7-oxo-6-(2-trifluoromethylphenyl)-7,8-dihydropyrido[2,3-d]pyrimidin-4-yl)-2-fluorobenzonitrile] cannot be ordered by IC50: 30 to 300 nM for the first, at most 30 nM for the second.

System: MV4-11 cell line transplanted tumor
Assay: In vivo efficacy evaluation in mouse transplanted tumor model
Parameters: species or system mouse (female NU/NU nude mice)
Conditions: MV4-11 xenograft in NU/NU nude mice; 20 mg/kg by gavage every day for 21 days
Protocol: Experimental purpose: To test the in vivo efficacy of compounds in mouse transplanted tumor model Experimental materials: female NU/NU nude mice, MV4-11 cell line Experimental methods: female NU/NU nude mice, weighing 20±2 g, were inoculated with MV4-11 cell line in the right axillary subcutaneous with a cell inoculation amount of 5×10^6/mouse. When the tumor formed, the diameter of the transplanted tumor was measured with vernier calipers, and the tumor was grew up to 100-300 mm^3; the animals were divided into model control group and administration group according to their weights and tumor volumes, with 6 animals per group. The administration group was administered with a suspension ground with 0.5% CMC-Na, while the model control group was given an equal amount of blank solvent. After grouping, the drug was administered orally every day at a dose of 20 mg/kg for 21 days. During the experiment, the diameter of the transplanted tumor was measured and the weight of the mice was weighed twice a week, and the tumor tissues were taken from the animal after euthanasia on the 21st day. […]

For `N#Cc1ccc(-c2nc(N3CCC[C@@H](N)CC3)nc3ccc(-c4c(F)cccc4C(F)(F)F)cc23)cc1F` (stereo in doubt) [Compound 89, 4-(2-(4-aminoazepan-1-yl)-6-(2-fluoro-6-(trifluoromethyl)phenyl)quinazolin-4-yl)-2-fluorobenzonitrile], the “relative tumor proliferation rate T/C” value was “less than 50%”.
With `N#Cc1ccc(-c2nc(N3CCC(N)CC3)nc3ccc(-c4c(F)cccc4C(F)(F)F)cc23)cc1F` [Compound 19, 4-(2-(4-aminopiperidin-1-yl)-6-(2-fluoro-6-(trifluoromethyl)phenyl)quinazolin-4-yl)-2-fluorobenzonitrile] the “relative tumor proliferation rate T/C” value was “less than 50%”.
